These are literature values, as cited in patent US5614503A, “Amphipathic nucleic acid transporter” (Aronex Pharmaceuticals, Inc., priority 1995, dated 1997).

One data set relates to animal cells. The settings on record: some types of animal cells; Felgner, 1990.
For data set [1] the following is noted: Moore et al., 1993.

On to `CCCCCCCC/C=C\CCCCCCCCOCC(C[N+](C)(C)C)OCCCCCCCC/C=C\CCCCCCCC` (centres unmarked) [DOTMA], for which the “effect on uptake kinetics of nucleic acids” value in the data set with animal cells is given as “can improve the uptake kinetics of nucleic acids”.

On to `CC(C)[C@@H](CC[C@@H](C)[C@H]1CC[C@H]2[C@@H]3[C@H](O)C[C@H]4C[C@@H](NCCCNCCCCN)CC[C@]4(C)[C@H]3CC[C@]12C)OS(=O)(=O)O` [squalamine], for which the antibiotic activity entry in data set [1] was “broad-spectrum antibiotic”.
